Experimental data reported in patent publication US20240138411A1, “METHOD OF […] OF SUGARCANE” (CORTEVA AGRISCIENCE LLC, priority 2021, published 2024).
“Also recorded” adds a separate entry of the source.

Tested on: sugarcane
Test: Sugarcane flowering inhibition field trials, floral induction rated on UFSCar scale
Assay type: in vivo
Description: In order to explore the activity of florpyrauxifen as flowering inhibitor in sugarcane, field studies were carried out. Florpyrauxifen-benzyl was tested at rates from 2 to 20 grams active ingredient per hectare (g ai/ha) and compared to Ethrel® 720 (Bayer), the standard treatment. The flowering inhibition effect was assessed by checking the floral induction in sugarcane through the percentage scale recommended by UFSCar (Federal University of Sao Carlos, Sao Paulo, Brazil).
Four trials were carried out in sugarcane where florpyrauxifen-benzyl (Rinskor®), applied at a rate of 2 to 20 g ai/ha, was compared to ethephon (Ethrel® 720) applied at a rate of 475 g ai/ha. Control plots of untreated sugarcane were also evaluated. Rinskor® and Ethrel® 720 were diluted in water and a single application for each study (backpack sprayer) was performed delivering 50 L of spray solution per ha at the reproductive stage of sugarcane and at a maximum 150 days before harvest. The activity of florpyrauxifen-benzyl as a flowering inhibitor was measured via assessments (Scale of flowering inhibition—see chart 1) performed at 0, 14, 30, 45, 60, 75, 90, 120, 150 days after application, or up to harvest time. The assessments were measured in sugarcane stems, rating the flowering induction according to the UFSCar scale shown below. Significance of treatment effect was evaluated with F-approximate test (α=0.1) and least square means from different treatments were compared with Tukey's test.

COc1c(Cl)ccc(-c2nc(C(=O)OCc3ccccc3)c(Cl)c(N)c2F)c1F [Rinskor, florpyrauxifen-benzyl]
Frequency 1/1 (0%) (Table 3, 120 DAA, 10 g ai/ha): 72.5%
Frequency 2/1 (15%) (Table 3, 120 DAA, 10 g ai/ha): 27.5%
Frequency 3/1 (30%) (Table 3, 120 DAA, 10 g ai/ha): 0.0%
Frequency 4/1 (50%) (Table 3, 120 DAA, 10 g ai/ha): 0.0%
Frequency 4/2 (80%) (Table 3, 120 DAA, 10 g ai/ha): 0.0%
Frequency 4/3 (90%) (Table 3, 120 DAA, 10 g ai/ha): 0.0%
Frequency 4/4 (100%) (Table 3, 120 DAA, 10 g ai/ha): 0.0%
% Referring to Scale (Table 3, 120 DAA, 15 g ai/ha): 2.6%
Frequency 1/1 (0%) (Table 3, 120 DAA, 15 g ai/ha): 85.0%
Frequency 2/1 (15%) (Table 3, 120 DAA, 15 g ai/ha): 12.5%
Frequency 3/1 (30%) (Table 3, 120 DAA, 15 g ai/ha): 2.5%
Frequency 4/1 (50%) (Table 3, 120 DAA, 15 g ai/ha): 0.0%
Frequency 4/2 (80%) (Table 3, 120 DAA, 15 g ai/ha): 0.0%
Frequency 4/3 (90%) (Table 3, 120 DAA, 15 g ai/ha): 0.0%
Frequency 4/4 (100%) (Table 3, 120 DAA, 15 g ai/ha): 0.0%
% Referring to Scale (Table 3, 120 DAA, 20 g ai/ha): 3.0%
Frequency 1/1 (0%) (Table 3, 120 DAA, 20 g ai/ha): 80.0%
Frequency 2/1 (15%) (Table 3, 120 DAA, 20 g ai/ha): 20.0%
Frequency 3/1 (30%) (Table 3, 120 DAA, 20 g ai/ha): 0.0%
Frequency 4/1 (50%) (Table 3, 120 DAA, 20 g ai/ha): 0.0%
Frequency 4/2 (80%) (Table 3, 120 DAA, 20 g ai/ha): 0.0%
Frequency 4/3 (90%) (Table 3, 120 DAA, 20 g ai/ha): 0.0%
Frequency 4/4 (100%) (Table 3, 120 DAA, 20 g ai/ha): 0.0%
% Referring to Scale (Table 3, 150 DAA, 2 g ai/ha): 3.0%
Frequency 1/1 (0%) (Table 3, 150 DAA, 2 g ai/ha): 80.0%
Frequency 2/1 (15%) (Table 3, 150 DAA, 2 g ai/ha): 20.0%
Frequency 3/1 (30%) (Table 3, 150 DAA, 2 g ai/ha): 0.0%
Frequency 4/1 (50%) (Table 3, 150 DAA, 2 g ai/ha): 0.0%
Frequency 4/2 (80%) (Table 3, 150 DAA, 2 g ai/ha): 0.0%
Frequency 4/3 (90%) (Table 3, 150 DAA, 2 g ai/ha): 0.0%
Frequency 4/4 (100%) (Table 3, 150 DAA, 2 g ai/ha): 0.0%
% Referring to Scale (Table 3, 150 DAA, 5 g ai/ha): 1.9%
Frequency 1/1 (0%) (Table 3, 150 DAA, 5 g ai/ha): 87.5%
Frequency 2/1 (15%) (Table 3, 150 DAA, 5 g ai/ha): 12.5%
Frequency 3/1 (30%) (Table 3, 150 DAA, 5 g ai/ha): 0.0%
Frequency 4/1 (50%) (Table 3, 150 DAA, 5 g ai/ha): 0.0%
Frequency 4/2 (80%) (Table 3, 150 DAA, 5 g ai/ha): 0.0%
Frequency 4/3 (90%) (Table 3, 150 DAA, 5 g ai/ha): 0.0%
Frequency 4/4 (100%) (Table 3, 150 DAA, 5 g ai/ha): 0.0%
% Referring to Scale (Table 3, 150 DAA, 7 g ai/ha): 3.0%
Frequency 1/1 (0%) (Table 3, 150 DAA, 7 g ai/ha): 80.0%
Frequency 2/1 (15%) (Table 3, 150 DAA, 7 g ai/ha): 20.0%
Frequency 3/1 (30%) (Table 3, 150 DAA, 7 g ai/ha): 0.0%
Frequency 4/1 (50%) (Table 3, 150 DAA, 7 g ai/ha): 0.0%
Frequency 4/2 (80%) (Table 3, 150 DAA, 7 g ai/ha): 0.0%
Frequency 4/3 (90%) (Table 3, 150 DAA, 7 g ai/ha): 0.0%
Frequency 4/4 (100%) (Table 3, 150 DAA, 7 g ai/ha): 0.0%
% Referring to Scale (Table 3, 150 DAA, 10 g ai/ha): 0.8%
Frequency 1/1 (0%) (Table 3, 150 DAA, 10 g ai/ha): 95.0%
Frequency 2/1 (15%) (Table 3, 150 DAA, 10 g ai/ha): 5.0%
Frequency 3/1 (30%) (Table 3, 150 DAA, 10 g ai/ha): 0.0%
Frequency 4/1 (50%) (Table 3, 150 DAA, 10 g ai/ha): 0.0%
Frequency 4/2 (80%) (Table 3, 150 DAA, 10 g ai/ha): 0.0%
Frequency 4/3 (90%) (Table 3, 150 DAA, 10 g ai/ha): 0.0%
Frequency 4/4 (100%) (Table 3, 150 DAA, 10 g ai/ha): 0.0%
% Referring to Scale (Table 3, 150 DAA, 15 g ai/ha): 1.9%
Frequency 1/1 (0%) (Table 3, 150 DAA, 15 g ai/ha): 87.5%
Frequency 2/1 (15%) (Table 3, 150 DAA, 15 g ai/ha): 12.5%
Frequency 3/1 (30%) (Table 3, 150 DAA, 15 g ai/ha): 0.0%
Frequency 4/1 (50%) (Table 3, 150 DAA, 15 g ai/ha): 0.0%
Frequency 4/2 (80%) (Table 3, 150 DAA, 15 g ai/ha): 0.0%
Frequency 4/3 (90%) (Table 3, 150 DAA, 15 g ai/ha): 0.0%
Frequency 4/4 (100%) (Table 3, 150 DAA, 15 g ai/ha): 0.0%
% Referring to Scale (Table 3, 150 DAA, 20 g ai/ha): 0.0%
Frequency 1/1 (0%) (Table 3, 150 DAA, 20 g ai/ha): 100.0%
Frequency 2/1 (15%) (Table 3, 150 DAA, 20 g ai/ha): 0.0%
Frequency 3/1 (30%) (Table 3, 150 DAA, 20 g ai/ha): 0.0%
Frequency 4/1 (50%) (Table 3, 150 DAA, 20 g ai/ha): 0.0%
Frequency 4/2 (80%) (Table 3, 150 DAA, 20 g ai/ha): 0.0%
Frequency 4/3 (90%) (Table 3, 150 DAA, 20 g ai/ha): 0.0%
Frequency 4/4 (100%) (Table 3, 150 DAA, 20 g ai/ha): 0.0%
% Referring to Scale (Table 4, 90 DAA, 2 g ai/ha): 5.6%
Frequency 1/1 (0%) (Table 4, 90 DAA, 2 g ai/ha): 65.0%
Frequency 2/1 (15%) (Table 4, 90 DAA, 2 g ai/ha): 35.0%
Frequency 3/1 (30%) (Table 4, 90 DAA, 2 g ai/ha): 0.0%
Frequency 4/1 (50%) (Table 4, 90 DAA, 2 g ai/ha): 0.0%
Frequency 4/2 (80%) (Table 4, 90 DAA, 2 g ai/ha): 0.0%
Frequency 4/3 (90%) (Table 4, 90 DAA, 2 g ai/ha): 0.0%
Frequency 4/4 (100%) (Table 4, 90 DAA, 2 g ai/ha): 0.0%
% Referring to Scale (Table 4, 90 DAA, 4 g ai/ha): 1.1%
Frequency 1/1 (0%) (Table 4, 90 DAA, 4 g ai/ha): 87.5%
Frequency 2/1 (15%) (Table 4, 90 DAA, 4 g ai/ha): 12.5%
Frequency 3/1 (30%) (Table 4, 90 DAA, 4 g ai/ha): 0.0%
Frequency 4/1 (50%) (Table 4, 90 DAA, 4 g ai/ha): 0.0%
Frequency 4/2 (80%) (Table 4, 90 DAA, 4 g ai/ha): 0.0%
Frequency 4/3 (90%) (Table 4, 90 DAA, 4 g ai/ha): 0.0%
Frequency 4/4 (100%) (Table 4, 90 DAA, 4 g ai/ha): 0.0%
% Referring to Scale (Table 4, 90 DAA, 10 g ai/ha): 6.0%
Frequency 1/1 (0%) (Table 4, 90 DAA, 10 g ai/ha): 60.0%
Frequency 2/1 (15%) (Table 4, 90 DAA, 10 g ai/ha): 40.0%
Frequency 3/1 (30%) (Table 4, 90 DAA, 10 g ai/ha): 0.0%
Frequency 4/1 (50%) (Table 4, 90 DAA, 10 g ai/ha): 0.0%
Frequency 4/2 (80%) (Table 4, 90 DAA, 10 g ai/ha): 0.0%
Frequency 4/3 (90%) (Table 4, 90 DAA, 10 g ai/ha): 0.0%
Frequency 4/4 (100%) (Table 4, 90 DAA, 10 g ai/ha): 0.0%
% Referring to Scale (Table 4, 90 DAA, 15 g ai/ha): 2.6%
Frequency 1/1 (0%) (Table 4, 90 DAA, 15 g ai/ha): 82.5%
Frequency 2/1 (15%) (Table 4, 90 DAA, 15 g ai/ha): 17.5%
Frequency 3/1 (30%) (Table 4, 90 DAA, 15 g ai/ha): 0.0%
Frequency 4/1 (50%) (Table 4, 90 DAA, 15 g ai/ha): 0.0%
Frequency 4/2 (80%) (Table 4, 90 DAA, 15 g ai/ha): 0.0%
Frequency 4/3 (90%) (Table 4, 90 DAA, 15 g ai/ha): 0.0%
Frequency 4/4 (100%) (Table 4, 90 DAA, 15 g ai/ha): 0.0%
% Referring to Scale (Table 4, 90 DAA, 20 g ai/ha): 3.0%
Frequency 1/1 (0%) (Table 4, 90 DAA, 20 g ai/ha): 80.0%
Frequency 2/1 (15%) (Table 4, 90 DAA, 20 g ai/ha): 20.0%
Frequency 3/1 (30%) (Table 4, 90 DAA, 20 g ai/ha): 0.0%
Frequency 4/1 (50%) (Table 4, 90 DAA, 20 g ai/ha): 0.0%
Frequency 4/2 (80%) (Table 4, 90 DAA, 20 g ai/ha): 0.0%
Frequency 4/3 (90%) (Table 4, 90 DAA, 20 g ai/ha): 0.0%
Frequency 4/4 (100%) (Table 4, 90 DAA, 20 g ai/ha): 0.0%
flowering inhibition performance versus the standard (Ethrel 720) (Tables 1-4, 60 to 150 days after application): as well as or better than the standard treatment; also recorded: equivalent to or better than the standard
sugarcane flowering inhibition (field studies, rates from 2 to 20 g ai/ha): excellent sugarcane flowering inhibitor
